Laboratory results reported in paper PMC5047880, “Characterization of Linoleate 10-Hydratase of Lactobacillus plantarum and Novel Antifungal Metabolites” (Frontiers in Microbiology, 2016).

Key:
Assay in all cases: activity of apoenzyme after addition of FAD, LC-APPI-MS
Type in all cases: biochemical
Settings in all cases: 0.2 mM FAD, 4°C, 24 h; linoleic acid as substrate, MES pH 6.1
[1] = target: T1, LAH of Lactobacillus reuteri (linoleate 10-hydratase, 10-LAH) (Limosilactobacillus reuteri, UniProt A0A1I9RYU8)
T1 construct: full length, 590 residues; His-tag from pET-28a(+) (NdeI/NotI); primers encode MYYSNGNY... and ...MEEQHLL
T1 sequence (A0A1I9RYU8 1-590): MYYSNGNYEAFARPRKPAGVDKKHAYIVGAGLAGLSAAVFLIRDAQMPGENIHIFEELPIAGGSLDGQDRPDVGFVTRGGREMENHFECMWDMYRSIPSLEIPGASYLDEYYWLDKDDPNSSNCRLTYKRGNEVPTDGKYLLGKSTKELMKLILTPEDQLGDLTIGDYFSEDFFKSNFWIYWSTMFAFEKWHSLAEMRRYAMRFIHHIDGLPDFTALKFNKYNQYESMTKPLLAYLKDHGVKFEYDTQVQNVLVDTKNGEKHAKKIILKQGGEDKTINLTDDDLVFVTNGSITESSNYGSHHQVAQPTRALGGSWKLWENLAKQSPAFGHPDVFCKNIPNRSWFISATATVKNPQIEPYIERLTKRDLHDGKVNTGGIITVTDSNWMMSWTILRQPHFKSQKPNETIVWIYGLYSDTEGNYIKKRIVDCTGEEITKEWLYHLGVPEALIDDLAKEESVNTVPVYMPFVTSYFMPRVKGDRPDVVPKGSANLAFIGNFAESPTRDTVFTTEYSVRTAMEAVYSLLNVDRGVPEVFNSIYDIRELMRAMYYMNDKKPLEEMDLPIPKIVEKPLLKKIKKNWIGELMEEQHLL

[2] = target: T2, LAH of Lactobacillus hammesii (linoleate 10-hydratase, 10-LAH) (Levilactobacillus hammesii, UniProt A0A1I9RYV0)
T2 construct: full length, 564 residues; His-tag from pET-28a(+) (BamHI/HindIII); primers encode MVKTKAVM... and ...ATKRMFS
T2 sequence (A0A1I9RYV0 1-564): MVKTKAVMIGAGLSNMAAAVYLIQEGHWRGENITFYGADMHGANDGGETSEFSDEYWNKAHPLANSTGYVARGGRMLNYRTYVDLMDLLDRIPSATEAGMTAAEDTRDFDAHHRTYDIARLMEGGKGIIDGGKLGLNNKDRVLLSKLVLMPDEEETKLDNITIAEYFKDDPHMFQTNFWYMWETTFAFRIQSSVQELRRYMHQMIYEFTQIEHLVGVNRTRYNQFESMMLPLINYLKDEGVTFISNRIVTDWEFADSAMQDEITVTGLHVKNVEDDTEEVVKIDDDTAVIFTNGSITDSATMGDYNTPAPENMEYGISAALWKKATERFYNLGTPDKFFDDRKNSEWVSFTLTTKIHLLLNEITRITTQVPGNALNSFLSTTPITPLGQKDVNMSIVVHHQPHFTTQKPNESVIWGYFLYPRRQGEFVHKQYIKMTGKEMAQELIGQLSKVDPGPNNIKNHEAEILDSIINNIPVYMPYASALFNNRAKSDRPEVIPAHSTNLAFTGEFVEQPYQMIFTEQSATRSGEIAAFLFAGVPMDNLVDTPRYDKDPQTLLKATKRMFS

[3] = target: T3, LAH of Lactobacillus spicheri (linoleate 10-hydratase, 10-LAH) (Levilactobacillus spicheri, UniProt A0A0F3RUK6)
T3 construct: gene lai; full length, 564 residues; His-tag from pET-28a(+) (EcoRI/NotI); primers encode MVKTKAVM... and ...ATKKMFS
T3 sequence (A0A0F3RUK6 1-564): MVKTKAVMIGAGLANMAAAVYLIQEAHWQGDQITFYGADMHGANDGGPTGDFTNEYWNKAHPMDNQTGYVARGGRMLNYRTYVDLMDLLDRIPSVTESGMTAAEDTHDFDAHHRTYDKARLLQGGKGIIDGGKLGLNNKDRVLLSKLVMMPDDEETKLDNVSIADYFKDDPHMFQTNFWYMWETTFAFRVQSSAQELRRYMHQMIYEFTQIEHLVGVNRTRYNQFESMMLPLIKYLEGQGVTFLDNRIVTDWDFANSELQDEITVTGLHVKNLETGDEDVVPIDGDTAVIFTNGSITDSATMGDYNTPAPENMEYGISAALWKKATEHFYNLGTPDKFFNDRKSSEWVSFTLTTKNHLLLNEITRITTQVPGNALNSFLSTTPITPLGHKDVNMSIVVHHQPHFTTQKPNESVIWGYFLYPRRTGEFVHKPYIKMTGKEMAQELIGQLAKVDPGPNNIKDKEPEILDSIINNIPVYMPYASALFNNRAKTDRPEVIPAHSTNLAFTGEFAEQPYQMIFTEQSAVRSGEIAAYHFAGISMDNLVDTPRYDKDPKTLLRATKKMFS

[4] = target: T4, LAH of Lactobacillus plantarum (linoleate 10-hydratase, 10-LAH) (Lactiplantibacillus plantarum, UniProt A0A1I9RYU9)
T4 construct: full length, 564 residues; His-tag from pET-28a(+) (EcoRI/NotI); primers encode MVKSKAIM... and ...ATKKMFD
T4 sequence (A0A1I9RYU9 1-564): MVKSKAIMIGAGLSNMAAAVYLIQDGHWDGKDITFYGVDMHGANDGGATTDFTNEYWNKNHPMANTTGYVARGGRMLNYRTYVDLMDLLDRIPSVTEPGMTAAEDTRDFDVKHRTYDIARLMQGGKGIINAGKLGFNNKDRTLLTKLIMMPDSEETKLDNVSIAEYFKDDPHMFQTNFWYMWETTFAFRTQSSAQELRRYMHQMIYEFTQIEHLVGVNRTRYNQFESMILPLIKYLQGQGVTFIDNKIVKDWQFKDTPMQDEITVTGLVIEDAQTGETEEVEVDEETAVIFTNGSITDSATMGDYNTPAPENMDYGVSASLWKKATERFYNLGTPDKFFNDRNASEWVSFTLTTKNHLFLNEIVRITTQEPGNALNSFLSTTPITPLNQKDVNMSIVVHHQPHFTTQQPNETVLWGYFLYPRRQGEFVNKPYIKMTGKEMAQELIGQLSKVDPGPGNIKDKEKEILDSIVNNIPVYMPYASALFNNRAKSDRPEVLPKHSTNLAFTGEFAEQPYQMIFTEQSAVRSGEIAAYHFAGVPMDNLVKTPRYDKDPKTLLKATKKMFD

Cc1cc2nc3c(=O)[nH]c(=O)nc-3n(C[C@H](O)[C@H](O)[C@H](O)COP(=O)(O)OP(=O)(O)OC[C@H]3O[C@@H](n4cnc5c(N)ncnc54)[C@H](O)[C@@H]3O)c2cc1C [FAD]
activity of apoenzyme after addition of FAD, LC-APPI-MS [1]: The addition of cofactor FAD to apoenzyme was essential for activity | activity of apoenzyme after addition of FAD, LC-APPI-MS [2]: The addition of cofactor FAD to apoenzyme was essential for activity | activity of apoenzyme after addition of FAD, LC-APPI-MS [3]: The addition of cofactor FAD to apoenzyme was essential for activity | activity of apoenzyme after addition of FAD, LC-APPI-MS [4]: The addition of cofactor FAD to apoenzyme was essential for activity
